Like-named read-outs stand apart in the source and are kept apart here.
Experiments:
C. pneumoniae [1] = assay: Inhibition of the infectivity (chlamydiasidic effect), re-infection of new cells; type: cell-based; details: for inhibition at 0.5 µM / inhibition at 50 µM: Chlamydia pneumoniae
Description: Inhibition of the Infectivity/C. pneumoniae
(§1) Solution to be used in the infection and containing chlamydiae particles is mixed throughout. The old nutrition liquid is aspirated away. By the infection the inoculum which has been stored at −70° C. is diluted to an IFU concentration of ca. 10^3 so that the volume of the solution is at least 200 μl/well on a 24-well plate. The cells are infected by centrifuging at 1600 rpm (550×g)/1 hr. The nutrition medium is aspirated away and changed to a maintenance medium containing cyclohexamide and also containing the studied compound (DMSO concentration 0.2%), 1 ml/well. The cells are incubated in a 5% CO2 atmosphere at +35° C. The cells infected with C. pneumoniae are incubated for 3 days. After 2-3 days the maintenance medium is removed and the cells washed with 1×1 ml of PBS. To the wells 200 μl of SPG are added for further infection, harvested with a pipette tip and transferred into tubes. This is used for infecting new cells in the same way as above to test the inhibition of infectivity (chlamydiasidic effect).
(§2) The nutrition medium, which is above the cover glass left for staining, is aspirated away. The infected cells are fixed on the cover glass with methanol for 10 min. The cover glass is removed from the well and -transferred onto a suitable fluorescein-conjugated monoclonal antibody on Parafilm in a moist chamber with the cell-containing side down. The cover glass is incubated for 30 min at +37° C. and washed twice with PBS and once with water. Finally it is dried. The cover glass is put with the cell-containing side down on an object glass containing a fixative (e.g. Mounting medium). When viewed under the fluorescent microscope, cell culture specimens infacted with chlamydiae show a characteristic apple-green fluorescence of inclusions against a red counterstained background.

HL cells = assay: Toxicity towards the host cells, Trypan blue staining, no infection; type: cell-based, human
Description: The determination was performed as in the previous tests but without any infection. The viability was determined with Trypan blue staining.

[2] = tested on: C. pneumoniae K7 strain (clinical isolate); assay: Direct anti-chlamydial effect (inhibition of formation of inclusions), HL host cells; type: cell-based; details: for Inhibition of the growth of C. pneumoniae (in words): concentration of 0.5-50 μg; for inhibition at 0.5 µM / inhibition at 50 µM: Chlamydia pneumoniae, read-out: Inhibition % of the DMSO control
Excerpt: The Direct Anti-Chlamydial Effect of Plant-Derived Phenolic Compounds (As Inhibition of Formation of Inclusions)/C. pneumoniae K7 Strain (Clinical Isolate)
(§3) The cultivated HL cells are infected with C. pneumoniae EB's. The EB's which have invaded the cell are changed into the metabolically active reticulate body (RB) which are dividing by binary fission in the endosome vacuole or inclusion.
(§4) After a certain time (about 72 hr) the C. pneumoniae RB's are condensing back into EB's, after which the inclusions are broken, the host cells are broken and the EB's are liberated. In this method the intention is to verify the inclusions before the breaking up of the host cells.
(§5) As the host cell of C. pneumoniae in in vitro conditions HL cells are used. As the host cells of C. trachomatis in in vitro conditions McCoy cells often are used.
(§6) On the day preceding the infection the host cells are inoculated on a 24-well plate: the cells are harvested by trypsinisation, they are suspended in ca. 5 ml of the nutrition liquid and counted in a Burker's chamber. Each well are seeded using a concentration of 250000-400000 cells/well for cultivation. Before the addition of the cells to the well is if necessary round cover glass (diameter 13 mm) put for staining. Nutrition liquid is added so that the volume is 1 ml/well. On the following day the cells are infected with the desired bacterium.
as §1, §2

C. trachomatis = assay: Direct anti-chlamydial effect on C. trachomatis, cultivation in McCoy cells; type: cell-based; details: for Effect on C. trachomatis (in words): pretreated host cells; for inhibition at 0.5 µM / inhibition at 50 µM: Chlamydia trachomatis
Description: C. trachomatis, cultivation in McCoy cells. The test procedure otherwise the same as with C. pneumoniae.
as §5, §6, §1, §2

[3] = tested on: C. pneumoniae K7 strain (clinical isolate); assay: Direct anti-chlamydial effect (inhibition of formation of inclusions), HL host cells; type: cell-based; details: for inhibition at 0.5 µM / inhibition at 50 µM: Chlamydia pneumoniae, read-out: Inhibition % of the DMSO control (pre-treated)
[4] = Antioxidant effect, IC50 against DPPH; type: biochemical; details: read-out: IC50 [moles L^−1] against DPPH′
Excerpt: (§7) In the following Table I some of the preferred plant-derived phenolic compounds according to the present invention, the effect of the compounds on the calcium influx to the cell, the antioxidant effect as well as the chemical structure of the compounds are presented.

Ca^2+ intake in the cell = assay: Effect of the compounds on the calcium influx (Ca2+ intake) to the cell; type: cell-based; details: compound 20 μg/ml; − = decrease, + = increase
Excerpt: as §7

C. pneumoniae [5] = assay: Direct anti-chlamydial effect of compounds and mixtures on C. pneumoniae (Example 5); type: cell-based; details: 50 μM; for inhibition at 50 µM: Chlamydia pneumoniae, read-out: Inhibition %
Description: Direct Anti-Chlamydial Effect of Plant-Derived Phenolic Compounds, Certain Synthetic Compounds and Mixtures on C. pneumoniae
The concentration used was 50 μM.
as §3, §4, §6, §1, §2

[6] = 0.5 μM, host cells pre-treated 1 day
[7] = 50 μM, host cells pre-treated 1 day
[8] = 0.5 μM, formation of inclusions
[9] = 0.5 μM, McCoy cells pre-treated 1 day
[10] = 50 μM, McCoy cells pre-treated 1 day
[11] = 0.5 μM, host cells incubated 1 day with compound before infection
[12] = 50 μM, host cells incubated 1 day with compound before infection
[13] = 0.5 μM, host cells pre-treated 1 day, read-out: Inhibition % of the DMSO control (pre-treated)
[14] = 0.5 μM, read-out: Inhibition % of the DMSO control
[15] = 50 μM, host cells pre-treated 1 day, read-out: Inhibition % of the DMSO control (pre-treated)
[16] = 50 μM, read-out: Inhibition % of the DMSO control
[17] = 0.5 μM, McCoy cells pre-treated 1 day, read-out: Inhibition % of the DMSO control (pre-treated)
[18] = 0.5 μM, McCoy cells, read-out: Inhibition % of the DMSO control
[19] = 50 μM, McCoy cells pre-treated 1 day, read-out: Inhibition % of the DMSO control (pre-treated)
[20] = 50 μM, McCoy cells, read-out: Inhibition % of the DMSO control

Compound | Inhibition % of the DMSO control (C. pneumoniae [1]; 0.5 μM) [%] | Inhibition % of the DMSO control (pre-treated) (C. pneumoniae [1]; [6]) [%] | Inhibition % of the DMSO control (C. pneumoniae [1]; 50 μM) [%] | Inhibition % of the DMSO control (pre-treated) (C. pneumoniae [1]; [7]) [%] | Toxicity test HL-C (HL cells; 0.005 μM) [%] | Toxicity test HL-C (pre-treated) (HL cells; 0.005 μM) [%] | Toxicity test HL-C (HL cells; 0.05 μM) [%] | Toxicity test HL-C (pre-treated) (HL cells; 0.05 μM) [%] | Toxicity test HL-C (HL cells; 0.5 μM) [%] | Toxicity test HL-C (pre-treated) (HL cells; 0.5 μM) [%] | Toxicity test HL-C (HL cells; 5 μM) [%] | Toxicity test HL-C (pre-treated) (HL cells; 5 μM) [%] | Toxicity test HL-C (HL cells; 50 μM) [%] | Toxicity test HL-C (pre-treated) (HL cells; 50 μM) [%] | Inhibition % of the DMSO control [2, 8] [%] | Inhibition % of the DMSO control ([2]; 50 μM, formation of inclusions) [%] | Inhibition of the growth of C. pneumoniae (in words) [2] | Inhibition % of the DMSO control (C. trachomatis; 0.5 μM, McCoy cells) [%] | Effect on C. trachomatis (in words) (C. trachomatis) | IC50 [4] [µM] | also measured
O=c1c(O)c(-c2ccc(O)cc2O)oc2cc(O)cc(O)c12 [Morin] | 81 | 53 | 94 | 76 | 8.3 | 14.4 | 9.0 | 8.1 | 8.4 | 6.4 | 8.3 | 12.7 | 11.2 | 9.7 | 80 | 99 | inhibited the growth | 0 | particularly effective | 23.9 | Inhibition % of the DMSO control (pre-treated) (C. trachomatis; [9]): 100%; Inhibition % of the DMSO control (C. trachomatis; 50 μM, McCoy cells): 0%; Inhibition % of the DMSO control (pre-treated) (C. trachomatis; [10]): 100%; Inhibition % of the DMSO control (pre-treated) [3, 11]: 62%; Inhibition % of the DMSO control (pre-treated) [3, 12]: 96%; Effect on Ca^2+ intake [%] (Ca^2+ intake in the cell): +48.0%; Inhibition % (C. pneumoniae [5]): 100%
CCCCCCCCOC(=O)c1cc(O)c(O)c(O)c1 [Octyl gallate] |  |  |  |  | 8.0 | 7.0 | 7.4 | 7.1 | 7.9 | 5.0 | 8.8 | 8.5 | 16.4 | 14.8 |  |  | inhibited the growth |  |  | 17 | inhibition at 0.5 µM (C. pneumoniae [1]; [13]): 42%; inhibition at 0.5 µM (C. pneumoniae [1]; [14]): 59%; inhibition at 50 µM (C. pneumoniae [1]; [15]): 100%; inhibition at 50 µM (C. pneumoniae [1]; [16]): 100%; inhibition at 0.5 µM [2]: 82%; inhibition at 50 µM [2]: 100%; inhibition at 0.5 µM (C. trachomatis; [17]): 0%; inhibition at 0.5 µM (C. trachomatis; [18]): 0%; inhibition at 50 µM (C. trachomatis; [19]): 88%; inhibition at 50 µM (C. trachomatis; [20]): 14%; inhibition at 0.5 µM [3]: 62%; inhibition at 50 µM [3]: 100%; inhibition at 20 µg/mL (Ca^2+ intake in the cell): 92.2%; inhibition at 50 µM (C. pneumoniae [5]): 100%
O=c1c(O)c(-c2ccc(O)c(O)c2)oc2cc(O)cc(O)c12 [Quercetin] |  |  |  |  | 7.4 | 7.9 | 11.7 | 7.2 | 7.0 | 3.3 | 9.2 | 8.1 | 10.5 | 10.5 |  |  | inhibited the growth |  | particularly effective | 10.7 | inhibition at 0.5 µM (C. pneumoniae [1]; [13]): 0%; inhibition at 0.5 µM (C. pneumoniae [1]; [14]): 58%; inhibition at 50 µM (C. pneumoniae [1]; [15]): 0%; inhibition at 50 µM (C. pneumoniae [1]; [16]): 76%; inhibition at 0.5 µM [2, 8]: 68%; inhibition at 50 µM ([2]; 50 μM, formation of inclusions): 90%; inhibition at 0.5 µM (C. trachomatis; [17]): 20%; inhibition at 0.5 µM (C. trachomatis; [18]): 0%; inhibition at 50 µM (C. trachomatis; [19]): 100%; inhibition at 50 µM (C. trachomatis; [20]): 0%; inhibition at 0.5 µM [3, 11]: 77%; inhibition at 50 µM [3, 12]: 90%; inhibition at 20 µg/mL (Ca^2+ intake in the cell): -54.1%; inhibition at 50 µM (C. pneumoniae [5]): 90%
COc1cc(O)c2c(=O)c(O)c(-c3ccc(O)c(O)c3)oc2c1 [Rhamnetin] | 100 | 75 | 100 | 67 | 10.9 | 6.6 | 9.5 | 7.6 | 10.0 | 10.6 | 9.6 | 8.0 | 15.7 | 16.9 | 73 | 99 | inhibited the growth | 0 | particularly effective | 12.1 | Inhibition % of the DMSO control (pre-treated) (C. trachomatis; [9]): 17%; Inhibition % of the DMSO control (C. trachomatis; 50 μM, McCoy cells): 0%; Inhibition % of the DMSO control (pre-treated) (C. trachomatis; [10]): 100%; Inhibition % of the DMSO control (pre-treated) [3, 11]: 50%; Inhibition % of the DMSO control (pre-treated) [3, 12]: 59%; Effect on Ca^2+ intake [%] (Ca^2+ intake in the cell): +6.63%; Inhibition % (C. pneumoniae [5]): 100%

Source: US20040058983A1, “Plan-derived and synthetic phenolic compounds and plant extracts, effective in the treatment and prevention of chlamydial infections” (priority 2000, published 2004)
